Assay results: US8022029B2, “Fabric softening compositions comprising polymeric materials” (priority 2007, dated 2011)

What was measured:
[1] = Proportion of perfume extracted from esterquat aggregates to polymeric material fibers (dosing by HPLC); format: physicochemical; settings: 16 hours
Experimental: (§1) The capsules were then reformulated with a copolymer of polyether and polyurethane-polyurea (commercially available as Lycra) polymeric fiber material. […] The containers were shacked for 16 hours to allow the systems to equilibrate. The polymeric material was then removed, and the esterquat was tested for perfume molecule content (via dosing by HPLC).

[2] = format: physicochemical
Experimental: as §1
(§2) Polystyrene cross-linked with divinyl benzene was explored as the polymeric material. The partition coefficient of perfume molecules between such cross-linked polystyrene coated with an aminoplast shell (commercially available as Serdolit III) and esterquat was evaluated.

[3] = format: physicochemical; remark: listed apart in the source
Experimental: as §2

[4] = Table 4; cited from earlier work
[5] = 1.0 g polymeric material in 100 g softener (3.6% esterquat, 0.38% perfume)
[6] = 3.1 g polymeric material in 100 g softener (3.6% esterquat, 0.38% perfume)
[7] = 5.0 g polymeric material in 100 g softener (3.6% esterquat, 0.38% perfume)

proportion of perfume absorbed by the polymeric material [1, 5] | proportion of perfume absorbed by the polymeric material [1, 6] | proportion of perfume absorbed by the polymeric material [1, 7] | Partition Coefficient of Copolymer of polyether and polyurethane [2] | Partition Coefficient of Polystyrene Material [3] | Compound | Log P [4]
0.24 | 0.45 | 0.57 | 1.0 | 6.7 | C=CCc1ccc(O)c(OC)c1 [Eugenol, eugenol] | 
 |  |  |  |  | C=CC(C)(O)CCC=C(C)C (stereo not shown) [Linalool, linalool] | 2.43
0.26 | 0.51 | 0.60 |  |  | CC(CCO)CCc1ccccc1 (stereo not shown) [Phenyl Hexanol, phenyl hexanol] | 
0.34 | 0.63 | 0.69 | 1.4 | 6.7 | CCCCCCOC(=O)c1ccccc1O [Hexyl Salicylate, hexyl salicylate] | 5.26
 |  |  |  |  | CC(C)=CCC/C(C)=C\CO [Nerol, nerol] | 2.65
